Source: patent US9695155B2, “Herbicidal substituted pyrimidinyloxy benzene compounds” (E. I. DU PONT DE NEMOURS AND COMPANY, priority 2013, dated 2017)

Legend:
[1] = test system: spring wheat; assay: Test D postemergence; format: in vivo, Triticum aestivum; conditions: Triticum aestivum, post-emergence
Description: (§1) Seeds of plant species selected from bluegrass (annual bluegrass, Poa annua), blackgrass (Alopecurus myosuroides), canarygrass (littleseed canarygrass, Phalaris minor), chickweed (common chickweed, Stellaria media), galium (catchweed bedstraw, Galium aparine), bromegrass, downy (downy bromegrass, Bromus tectorum), field poppy (Papaver rhoeas), field violet (Viola arvensis), green foxtail (Setaria viridis), deadnettle (henbit deadnettle, Lamium amplexicaule), Italian ryegrass (Lolium multiflorum), kochia (Kochia scoparia), lambsquarters (Chenopodium album), oilseed rape (Brassica napus), pigweed (Amaranthus retroflexus), chamomile (scentless chamomile, Matricaria inodora), Russian thistle (Salsola kali), speedwell (bird's-eye speedwell, Veronica persica), spring barley (Hordeum vulgare), spring wheat (Triticum aestivum), wild buckwheat (Polygonum convolvulus), wild mustard (Sinapis arvensis), wild oat (Avena fatua), wild radish (Raphanus raphanistrum), windgrass (Apera spica-venti), winter barley (Hordeum vulgare), and winter wheat (Triticum aestivum) were planted into a silt loam soil and treated preemergence with test chemicals formulated in a non-phytotoxic solvent mixture which included a surfactant.
(§2) At the same time, these species were planted in pots containing Redi-Earth® planting medium (Scotts Company, 14111 Scottslawn Road, Marysville, Ohio 43041) comprising spaghnum peat moss, vermiculite, wetting agent and starter nutrients and treated with postemergence applications of the test chemicals formulated in the same manner. Plants ranged in height from 2 to 18 cm (1- to 4-leaf stage). Treated plants and controls were maintained in a controlled growth environment for 7 to 21 days after which time all species were compared to controls and visually evaluated. Plant response ratings, summarized in Table D, are based on a scale of 0 to 100 where 0 is no effect and 100 is complete control. A dash (-) response means no test result.

[2] = test system: winter wheat; assay: Test D postemergence; format: in vivo, Triticum aestivum; conditions: Triticum aestivum, post-emergence
Description: as §1, §2

[3] = test system: wild oat; assay: Test D preemergence; format: in vivo, Avena fatua; conditions: Avena fatua, pre-emergence
Description: as §1, §2

[4] = test system: windgrass; assay: Test D preemergence; format: in vivo, Apera spica-venti; conditions: Apera spica-venti, pre-emergence
Description: as §1, §2

[5] = test system: blackgrass; assay: Test D postemergence; format: in vivo, Alopecurus myosuroides; conditions: Alopecurus myosuroides, post-emergence, Postemergence, scale 0 to 100 (0 no effect, 100 complete control), read-out: Plant response rating, Blackgrass
Description: as §1, §2

[6] = test system: wild buckwheat; assay: Test D postemergence; format: in vivo, Polygonum convolvulus; conditions: Fallopia convolvulus, post-emergence, Postemergence, scale 0 to 100 (0 no effect, 100 complete control), read-out: Plant response rating, Buckwheat, Wild
Description: as §1, §2

[7] = test system: bluegrass; assay: Test D postemergence; format: in vivo, Poa annua; conditions: Poa annua, post-emergence, Postemergence, scale 0 to 100 (0 no effect, 100 complete control), read-out: Plant response rating, Bluegrass
Description: as §1, §2

[8] = test system: Italian ryegrass; assay: Test D postemergence; format: in vivo, Lolium multiflorum; conditions: Lolium multiflorum, post-emergence
Description: as §1, §2

[9] = test system: chickweed; assay: Test D preemergence; format: in vivo, Stellaria media; conditions: Stellaria media, pre-emergence
Description: as §1, §2

[10] = test system: Italian ryegrass; assay: Test D preemergence; format: in vivo, Lolium multiflorum; conditions: Lolium multiflorum, pre-emergence
Description: as §1, §2

[11] = test system: windgrass; assay: Test D postemergence; format: in vivo, Apera spica-venti; conditions: Apera spica-venti, post-emergence
Description: as §1, §2

[12] = test system: field poppy; assay: Test D preemergence; format: in vivo, Papaver rhoeas; conditions: Papaver rhoeas, pre-emergence
Description: as §1, §2

For FC(F)(F)COc1cnn(-c2ccccc2Oc2ncc(Cl)cn2)c1 [Compound 138, 5-chloro-2-[2-[4-(2,2,2-trifluoroethoxy)-1H-pyrazol-1-yl]phenoxy]pyrimidine], the plant injury at 16 g/ha ([1]; 16 g ai/ha, scale 0-100, read-out: Plant response rating, Wheat, Spring) was 5%, the plant injury at 31 g/ha ([1]; 31 g ai/ha, scale 0 to 100 (0 no effect, 100 complete control), read-out: Plant response rating, Wheat, Spring) was 5% and the plant injury at 62 g/ha ([1]; 62 g ai/ha, scale 0 to 100 (0 no effect, 100 complete control), read-out: Plant response rating, Wheat, Spring) was 5%. The plant injury at 125 g/ha ([1]; 125 g ai/ha, scale 0 to 100 (0 no effect, 100 complete control), read-out: Plant response rating, Wheat, Spring) was 15%, the plant injury at 16 g/ha ([2]; 16 g ai/ha, scale 0-100, read-out: Plant response rating, Wheat, Winter) was 0% and the plant injury at 31 g/ha ([2]; 31 g ai/ha, scale 0 to 100 (0 no effect, 100 complete control), read-out: Plant response rating, Wheat, Winter) was 0%. The plant injury at 62 g/ha ([2]; 62 g ai/ha, scale 0 to 100 (0 no effect, 100 complete control), read-out: Plant response rating, Wheat, Winter) was 5%, the plant injury at 125 g/ha ([2]; 125 g ai/ha, scale 0 to 100 (0 no effect, 100 complete control), read-out: Plant response rating, Wheat, Winter) was 15% and the pest or weed control at 16 g/ha ([3]; 16 g ai/ha, scale 0 (no effect) to 100 (complete control), read-out: Plant response rating, Oat, Wild) was 0%. For the same molecule, the pest or weed control at 31 g/ha ([3]; 31 g ai/ha, scale 0-100, read-out: Plant response rating, Oat, Wild) was 0%, the pest or weed control at 62 g/ha ([3]; 62 g ai/ha, scale 0-100, read-out: Plant response rating, Oat, Wild) was 0% and the pest or weed control at 125 g/ha ([3]; 125 g ai/ha, scale 0-100, read-out: Plant response rating, Oat, Wild) was 0%. It also gave a pest or weed control at 16 g/ha ([4]; 16 g ai/ha, scale 0 (no effect) to 100 (complete control), read-out: Plant response rating, Windgrass) of 0%, a pest or weed control at 31 g/ha ([4]; 31 g ai/ha, scale 0 (no effect) to 100 (complete control), read-out: Plant response rating, Windgrass) of 0% and a pest or weed control at 62 g/ha ([4]; 62 g ai/ha, scale 0-100, read-out: Plant response rating, Windgrass) of 0%. The pest or weed control at 125 g/ha ([4]; 125 g ai/ha, scale 0-100, read-out: Plant response rating, Windgrass) was 15%, the pest or weed control at 62 g/ha ([5]; 62 g ai/ha) was 10% and the pest or weed control at 16 g/ha ([5]; 16 g ai/ha) was 5%. For the same molecule, the pest or weed control at 31 g/ha ([5]; 31 g ai/ha) was 5%, the pest or weed control at 125 g/ha ([5]; 125 g ai/ha) was 15% and the pest or weed control at 16 g/ha ([6]; 16 g ai/ha) was 65%. It also gave a pest or weed control at 31 g/ha ([6]; 31 g ai/ha) of 70%, a pest or weed control at 62 g/ha ([6]; 62 g ai/ha) of 65% and a pest or weed control at 125 g/ha ([6]; 125 g ai/ha) of 80%. It also gave a pest or weed control at 16 g/ha ([7]; 16 g ai/ha) of 0%, a pest or weed control at 31 g/ha ([7]; 31 g ai/ha) of 5% and a pest or weed control at 62 g/ha ([7]; 62 g ai/ha) of 5%. It also gave a pest or weed control at 125 g/ha ([7]; 125 g ai/ha) of 10%, a pest or weed control at 16 g/ha ([8]; 16 g ai/ha, scale 0-100, read-out: Plant response rating, Ryegrass, Italian) of 5% and a pest or weed control at 31 g/ha ([8]; 31 g ai/ha, scale 0 to 100 (0 no effect, 100 complete control), read-out: Plant response rating, Ryegrass, Italian) of 0%. It also gave a pest or weed control at 62 g/ha ([8]; 62 g ai/ha, scale 0 to 100 (0 no effect, 100 complete control), read-out: Plant response rating, Ryegrass, Italian) of 0%, a pest or weed control at 125 g/ha ([8]; 125 g ai/ha, scale 0 to 100 (0 no effect, 100 complete control), read-out: Plant response rating, Ryegrass, Italian) of 5% and a pest or weed control at 16 g/ha ([9]; 16 g ai/ha, scale 0 (no effect) to 100 (complete control), read-out: Plant response rating, Chickweed) of 100%. The pest or weed control at 31 g/ha ([9]; 31 g ai/ha, scale 0-100, read-out: Plant response rating, Chickweed) was 100%, the pest or weed control at 62 g/ha ([9]; 62 g ai/ha, scale 0-100, read-out: Plant response rating, Chickweed) was 100% and the pest or weed control at 125 g/ha ([9]; 125 g ai/ha, scale 0-100, read-out: Plant response rating, Chickweed) was 100%. For the same molecule, the pest or weed control at 16 g/ha ([10]; 16 g ai/ha, scale 0 (no effect) to 100 (complete control), read-out: Plant response rating, Ryegrass, Italian) was 0%, the pest or weed control at 31 g/ha ([10]; 31 g ai/ha, scale 0 (no effect) to 100 (complete control), read-out: Plant response rating, Ryegrass, Italian) was 0% and the pest or weed control at 62 g/ha ([10]; 62 g ai/ha, scale 0-100, read-out: Plant response rating, Ryegrass, Italian) was 0%. For the same molecule, the pest or weed control at 125 g/ha ([10]; 125 g ai/ha, scale 0-100, read-out: Plant response rating, Ryegrass, Italian) was 10%, the pest or weed control at 16 g/ha ([11]; 16 g ai/ha, scale 0-100, read-out: Plant response rating, Windgrass) was 0% and the pest or weed control at 31 g/ha ([11]; 31 g ai/ha, scale 0 to 100 (0 no effect, 100 complete control), read-out: Plant response rating, Windgrass) was 0%. It also gave a pest or weed control at 62 g/ha ([11]; 62 g ai/ha, scale 0 to 100 (0 no effect, 100 complete control), read-out: Plant response rating, Windgrass) of 15%, a pest or weed control at 125 g/ha ([11]; 125 g ai/ha, scale 0 to 100 (0 no effect, 100 complete control), read-out: Plant response rating, Windgrass) of 20% and a pest or weed control at 16 g/ha ([12]; 16 g ai/ha, scale 0 (no effect) to 100 (complete control), read-out: Plant response rating, Field Poppy) of 100%. The pest or weed control at 31 g/ha ([12]; 31 g ai/ha, scale 0-100, read-out: Plant response rating, Field Poppy) was 100%, the pest or weed control at 62 g/ha ([12]; 62 g ai/ha, scale 0-100, read-out: Plant response rating, Field Poppy) was 100% and the pest or weed control at 125 g/ha ([12]; 125 g ai/ha, scale 0-100, read-out: Plant response rating, Field Poppy) was 100%.
